From patent US20260345603A1, “PRMT5 INHIBITORS” (Beijing Earthwise Technology Co., Ltd., priority 2022, published 2026)
Where two headings read alike, the source gives them in different places.

Key:
Format in all cases: cell-based
[1] = target: T1, cellular SDMA in HCT116^MTAP Deletion cells (Homo sapiens, UniProt O14744); assay: In-Cell Western Assay of cellular SDMA, HCT116 MTAP Deletion; details: 96 hours, read-out: SDMA inhibition IC50 in HCT116^MTAP Deletion
T1 construct: in-cell Western of symmetric dimethylarginine
Description: (§1) HCT116^MTAPD Deletion cells were from Horizon; HCT116 cells were from ATCC; RPMI-1640 medium was purchased from ATCC (USA); penicillin-streptomycin was purchased from Gibco (USA); fetal bovine serum was purchased from ExCell; 96-well plate was purchased from Corning (USA); Symmetric Di-Methyl Arginine Motif [sdme-RG]antibody was purchased from CST (USA); IRDye 800CW Goat anti-Rabbit IgG secondary antibody was purchased from LI-COR (USA), and CellTag 700 stain was purchased from LI-COR (USA).
(§2) Compound dissolution: All the compounds were dissolved in dimethyl sulfoxide (DMSO) and then stored. The compounds were stored at −20 °C for long term storage.
(§3) The cells were cultured strictly in accordance with ATCC requirements. The cell culture medium (RPMI-1640 medium+10% serum+1% penicillin+streptomycin) was transferred to a 15 mL centrifuge tube and centrifuged at 1000 rpm for 5 min. The supernatant was removed. The cells were resuspended with complete culture medium, inoculated into a culture dish at the required density, and cultured in an incubator at 37 °C, 95% humid air, and 5% carbon dioxide. The culture medium was replenished or the cells were passaged every 2-3 days depending on the cell growth condition.
When the confluency of cells in the culture dish reached about 90%, the cells were washed twice with PBS, and then digested with trypsin. 100 μl of the cells was inoculated into each well of a 96-well plate (800 cells/well). The plate was incubated overnight in a 37 °C and 5% CO2 incubator. 50 μL of 3× final concentration of a compound was added to the cell culture plate. Each compound was subjected to a 3-fold dilution, resulting in 10 concentration gradients, in duplicate, and the final concentration of DMSO was 0.5%. The plate was incubated in a 37 °C and 5% CO2 incubator for 96 hours.
150 μL of 8% paraformaldehyde was added to each well, and the plate was incubated at room temperature for 15 minutes. The supernatant was discarded. The plate was washed with PBS, and 200 μL of freshly prepared 1× Permeabilization buffer was added to each well. The plate was incubated at room temperature for 30 minutes. The supernatant was discarded. 200 μL of 1× Blocking buffer was added to each well, and the plate was incubated at room temperature for 2 hours. The supernatant was discarded. 50 μL of primary antibody (CST, 1× Incubation buffer 1:500 dilution) was added to each well, and the plate was incubated at 4 °C overnight. The supernatant was discarded. 250 μL of 1× Washing buffer was added to each well, and the plate was washed three times. 50 μL of secondary antibody (IRDye 800CW Goat anti-Rabbit IgG and CellTag 700 dye, 1:800 and 1:500 diluted in Incubation buffer) was added to each well, and the plate was incubated at room temperature for 1 hour. The supernatant was discarded. The plate was washed with 1× Washing buffer. Signals were detected using Licor Odyssey CLX. […] According to the different drug concentrations and their corresponding inhibition rates, the IC50 curve was drawn using GraphPad 8.0 software. The data were analyzed, and the final IC50 value was obtained.

[2] = tested on: HCT116^MTAP Deletion cells; assay: Anti-proliferation assay on cells (CTG, 10 days), HCT116 MTAP Deletion
Description: (§4) HCT116^MTAD Deletion cells were from Pharmaron (China); HCT116 cells were from ATCC; McCoy's 5A medium was purchased from Invitrogen (USA); penicillin-streptomycin and fetal bovine serum were purchased from Gibco (USA); a 384-well plate was purchased from PerkinElmer (USA); and Cell-Titer Glo reagent was purchased from Promega (USA).
(§5) Compound dissolution: All the compounds were dissolved in dimethyl sulfoxide (DMSO) and then stored. The compounds were stored at room temperature in a dry condition for 3 months for short term storage or at −20 °C for long term storage.
as §3, with “(McCoy's 5A” for “(RPMI-1640”, “medium+10% fetal bovine” for “medium+10%”
(§6) When the confluency of cells in the culture dish reached about 90%, the cells were washed twice with PBS, and then treated with trypsin to become single cells. The cells were counted, and 40 μl of the cells was inoculated into each well of a 384-well plate (50 cells/well). The plate was equilibrated at 37 °C and 5% carbon dioxide for 10 to 15 minutes. The compounds were injected into the 384-well plate using Echo550, and positive control and negative control (0.1% DMSO) were set up. Each compound was subjected to a 3-fold dilution, resulting in 10 concentration gradients, in duplicate, and the content of DMSO was 0.1%. The 384-well plate was incubated in a cell culture incubator for 10 days.
(§7) Then, 40 μl of cell proliferation assay reagent (CTG) was added to the 384-well plate, and the plate was shaken to mix well. Then, the 384-well plate was incubated at 37 °C and 5% carbon dioxide in the dark for 30 minutes. The data were read using the Envision multifunctional microplate reader. […] According to the different drug concentrations and their corresponding inhibition rates, the GI50 curve was drawn using GraphPad 8.0 software. The data were analyzed, and the final GI50 value was obtained.

[3] = tested on: HCT116 cells (HCT116^MTAP WT); assay: Anti-proliferation assay on cells (CTG, 10 days), HCT116 (MTAP WT); details: for Selectivity multiple of HCT116^MTAP WT GI50/HCT116^MTAP Deletion GI50: ratio HCT116 MTAP WT GI50 / HCT116 MTAP Deletion GI50; for selectivity (HCT116 vs HCT116^MTAP Deletion GI50): 14400 min; for GI50: Homo sapiens, HCT-116, HCT116 (MTAP WT)
Description: as §4, §5
as §3, with “(McCoy's 5A” for “(RPMI-1640”, “medium+10% fetal bovine” for “medium+10%”
as §6, §7

[4] = tested on: cellular SDMA in HCT116 cells; assay: In-Cell Western Assay of cellular SDMA, HCT116; details: Homo sapiens, HCT-116, 96 hours, read-out: SDMA inhibition IC50 in HCT116
Description: as §1, §2
as §3, with “The culture medium was replenished or the cells were passaged every 2-3 days depending on the cell growth condition.” left out
150 μL of 8% paraformaldehyde was added to each well, and the plate was incubated at room temperature for 15 minutes. […] Signals were detected using Licor Odyssey CLX. […] The data were analyzed, and the final IC50 value was obtained.

[5] = Homo sapiens, HCT-116, 240 h, anti-proliferative activity, HCT116 MTAP Deletion, 10 days, class symbols, read-out: HCT116^MTAP Deletion GI50
[6] = anti-proliferative activity, HCT116 MTAP Deletion, 10 days, class symbols, read-out: HCT116^MTAP Deletion GI50
[7] = Homo sapiens, HCT-116, HCT116 MTAP Deletion, read-out: GI50 for HCT116^MTAP Deletion

T1 sequence (O14744 whole entry, stated change not applied): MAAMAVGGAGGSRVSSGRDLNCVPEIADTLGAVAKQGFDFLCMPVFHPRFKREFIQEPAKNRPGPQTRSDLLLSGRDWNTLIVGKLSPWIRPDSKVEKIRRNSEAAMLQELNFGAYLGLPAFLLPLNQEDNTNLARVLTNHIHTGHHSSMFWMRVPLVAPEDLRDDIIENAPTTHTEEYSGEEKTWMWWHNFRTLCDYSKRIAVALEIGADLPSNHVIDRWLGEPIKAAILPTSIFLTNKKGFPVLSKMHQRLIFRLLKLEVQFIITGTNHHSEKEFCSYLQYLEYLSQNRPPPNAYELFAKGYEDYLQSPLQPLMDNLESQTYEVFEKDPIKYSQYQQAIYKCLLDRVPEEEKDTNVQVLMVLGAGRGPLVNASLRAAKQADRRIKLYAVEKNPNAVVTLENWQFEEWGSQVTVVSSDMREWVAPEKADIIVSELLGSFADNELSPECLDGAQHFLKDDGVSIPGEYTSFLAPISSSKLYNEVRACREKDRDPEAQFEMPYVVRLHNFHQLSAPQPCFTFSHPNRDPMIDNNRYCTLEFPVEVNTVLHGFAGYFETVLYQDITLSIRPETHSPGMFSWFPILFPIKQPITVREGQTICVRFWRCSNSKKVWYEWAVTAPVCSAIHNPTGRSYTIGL
T1 sequence (Q9BQA1 whole entry partner): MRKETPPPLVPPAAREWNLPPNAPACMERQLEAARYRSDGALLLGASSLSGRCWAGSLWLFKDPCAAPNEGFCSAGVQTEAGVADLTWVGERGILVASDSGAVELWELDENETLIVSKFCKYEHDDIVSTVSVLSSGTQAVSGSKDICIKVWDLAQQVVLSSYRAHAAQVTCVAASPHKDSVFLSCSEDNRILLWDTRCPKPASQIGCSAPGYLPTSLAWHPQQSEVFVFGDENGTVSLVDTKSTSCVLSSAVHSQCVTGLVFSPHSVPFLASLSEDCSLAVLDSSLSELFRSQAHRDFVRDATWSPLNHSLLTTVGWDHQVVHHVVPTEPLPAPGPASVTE

Work on `CN(C(=O)C(=O)Nc1cnc(N)c2c1cnn2C)C1COCc2nc(C(F)(F)F)ccc21` (stereo not drawn) [Example 152-P2] yielded an IC50 [1] of 10 to 100 nM.

With `CN(C(=O)C(=O)Nc1cnc(N)c2c1cnn2C)C1COc2cc(C(F)(F)F)ccc21` (stereo not drawn) [Example 89] the GI50 [2, 5] was ≤ 10 nM and the “Selectivity multiple of HCT116^MTAP WT GI50/HCT116^MTAP Deletion GI50” value [3] was 160.

In the case of `CN(C(=O)C(=O)Nc1cnc(N)c2c1cnn2C)C1COCc2cc(C3=CCOCC3)ccc21` (stereo not drawn) [Example 132-P1], the GI50 [2, 6] is reported as ≤ 10 nM and the IC50 [1] is reported as ≤ 10 nM.

In the case of `CN(C(=O)C(=O)Nc1cnc(N)c2c1cnn2C)C1COCc2cc(C(F)(F)F)ccc21` (stereo not drawn) [Example 106-P2], the GI50 [2, 6] is reported as ≤ 10 nM, the “Selectivity multiple of HCT116^MTAP WT GI50/HCT116^MTAP Deletion GI50” value [3] is reported as 169 and the IC50 [1] is reported as ≤ 10 nM. It also gave an IC50 [4] of 10 to 100 nM.

With `CN(C(=O)C(=O)Nc1cnc(N)c2c1cnn2C)C1COCc2cc(Cl)c(Cl)cc21` (single isomer, unassigned) [Example 163-P1] the “Selectivity multiple of HCT116^MTAP WT GI50/HCT116^MTAP Deletion GI50” value [3] was 94.

For `Cc1ncc(-c2ccc3c(c2)COCC3N(C)C(=O)C(=O)Nc2cnc(N)c3c2cnn3C)s1` (stereo not drawn) [Example 135], the GI50 [2, 5] was ≤ 10 nM and the IC50 [1] was ≤ 10 nM.

`Cc1cc(NC(=O)C(=O)N(Cc2ccc(C(F)(F)F)cn2)C(C)(C)C)cnc1N` [Example 33] was tested, and the GI50 [2, 5] was 1000 to 10000 nM, the GI50 [2, 7] was ≤ 100 nM and the “selectivity (HCT116 vs HCT116^MTAP Deletion GI50)” value [3] was “more than 300 times”. The GI50 [3] was 1000 to 10000 nM.

With `CN(C(=O)C(=O)Nc1cnc(N)c2c1cnn2C)C1COc2cc(-c3ccnn3C)ccc21` (stereo not drawn) [Example 192-P1] the IC50 [1] was ≤ 10 nM.

With `C[C@H](c1ncccn1)N(Cc1ccc(C(F)(F)F)cn1)C(=O)C(=O)Nc1cnc(N)c2cnn(C)c12` [Example 34] the GI50 [2, 5] was 100 to 1000 nM, the GI50 [2, 7] was ≤ 100 nM and the “selectivity (HCT116 vs HCT116^MTAP Deletion GI50)” value [3] was “more than 300 times”. The GI50 [3] was 1000 to 10000 nM.

Compound `CCC(C)N(Cc1ccc(C(F)(F)F)cn1)C(=O)C(=O)Nc1cnc(N)c2c1cnn2C` (stereo not drawn) [Example 46-P2] has a GI50 [2, 5] of 10 to 100 nM.

Work on `COc1ncc(NC(=O)C(=O)N(Cc2ccc(C(F)(F)F)cn2)[C@H](C)c2ncccn2)cc1C(N)=O` [Example 25] yielded a GI50 [2, 5] of 10 to 100 nM.

Work on `CC(c1cscn1)N(Cc1ccc(C(F)(F)F)cn1)C(=O)C(=O)Nc1cnc(N)c2c1cnn2C` (stereo not drawn) [Example 44] yielded a GI50 [2, 5] of 10 to 100 nM.

`Cc1cc(N)ncc1NC(=O)C(=O)N(Cc1ccc(C(F)(F)F)cn1)[C@H](C)c1ncccn1` [Example 26] showed a GI50 [2, 5] of 100 to 1000 nM.

`CN(C(=O)C(=O)Nc1cnc(N)c2c1cnn2C)C1COCc2c(F)cc(Cl)cc21` (racemic) [Compound 155] was tested, and the GI50 [2, 5] was 10 to 100 nM.

With `CN1CC=C(c2ccc3c(c2)COCC3N(C)C(=O)C(=O)Nc2cnc(N)c3c2cnn3C)CC1` (stereo not drawn) [Example 160] the GI50 [2, 5] was 10 to 100 nM.

In the case of `CN(C(=O)C(=O)Nc1cnc(N)c2c1cnn2C)C1COCc2cc(C(F)(F)F)ccc21` (stereo not drawn) [Example 106-P1], the GI50 [2, 5] is reported as 10 to 100 nM.

For `Cc1nc(NC(=O)C(=O)N(Cc2ccc(C(F)(F)F)cn2)[C@H](C)c2ncccn2)cnc1N` [Example 27], the GI50 [2, 5] was 100 to 1000 nM.

With `CN(C(=O)C(=O)Nc1cnc(N)c2c1cnn2C)C1COCc2cc(-c3ccc(C(F)(F)F)nc3)ccc21` (racemic) [Compound 221] the GI50 [2, 5] was ≤ 10 nM.

`CN(C(=O)C(=O)Nc1cnc(N)c2c1cnn2C)C1COc2cc(F)c(F)cc21` (racemic) [Compound 172] showed a GI50 [2, 5] of 10 to 100 nM.

Compound `Cc1cc(NC(=O)C(=O)N(C)C2COCc3cc(C4=CCOCC4)ccc32)cnc1N` (racemic) [Compound 162] has a GI50 [2, 5] of 100 to 1000 nM.

`CN(C(=O)C(=O)Nc1cnc(N)c2c1cnn2C)C1COCc2cc(-c3ccnn3C)ccc21` (stereo not drawn) [Example 156-P1] was tested, and the IC50 [1] was ≤ 10 nM.

With `CC1OCC(N(C)C(=O)C(=O)Nc2cnc(N)c3c2cnn3C)c2ccc(C(F)(F)F)cc21` (stereo not drawn) [Compound 187] the GI50 [2, 5] was ≤ 10 nM.

`C[C@H](c1ncccn1)N(Cc1ccc(C(F)(F)F)cn1)C(=O)C(=O)Nc1cnc(N)c2cncn12` [Example 38] was tested, and the GI50 [2, 5] was > 10000 nM.

In the case of `CN(C(=O)C(=O)Nc1cnc(N)c2c1cnn2C)C1COc2nc(C(F)(F)F)ccc21` (stereo not drawn) [Example 159], the GI50 [2, 5] is reported as 100 to 1000 nM.

With `CN(C(=O)C(=O)Nc1cnc(N)c2c1cnn2C)C1COc2cc(C(F)(F)F)ccc21` (single isomer, unassigned) [Example 112-P1] the GI50 [2, 6] was ≤ 10 nM, the IC50 [1] was ≤ 10 nM and the IC50 [4] was 100 to 1000 nM.

With `CN(C(=O)C(=O)Nc1cnc(N)c2c1cnn2C)C1COCc2cc(-c3cnn(C)c3)ccc21` (stereo not drawn) [Example 124-P1] the GI50 [2, 6] was ≤ 10 nM.

`CCC(C)N(Cc1ccc(C(F)(F)F)cn1)C(=O)C(=O)Nc1cnc(OC)c(C(N)=O)c1` (single isomer, unassigned) [Example 5-P1] was tested, and the GI50 [2, 5] was 10 to 100 nM.

`CCOc1ccc(CN(C(=O)C(=O)Nc2cnc(N)c(C)c2)[C@H](C)c2ncccn2)nn1` [Example 35] gave a GI50 [2, 5] of 10 to 100 nM.
